The record followed here is patent US20080234262A1 (Wyeth, priority 2007, published 2008).

The test system of one test is breast line MDA468. Put plainly: In vitro cell culture growth assay (MTS), MDA468. It is filed as cell-based, human. The settings on record: MDA468 cells, three days after drug treatment. The procedure, abridged: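 MDA468 or LNCap cells received inhibitors one day after plating and were grown for three days. Viable cell density read by MTS conversion, absorbance 490 nm, expressed as percent of control growth versus vehicle-treated cells on the same plate.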

Another test concerns prostate line LNCap. Put plainly: In vitro cell culture growth assay (MTS), LNCap. In kind it is cell-based, human. The following applies: LNCap cells, three days after drug treatment.
For a further test, the target named is PI3K (Homo sapiens, UniProt P42336). Kind of test: Fluorescence polarization assay for PI3K.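 Also: PI3K kinase reaction on PIP2 with ATP, 30-60 min, product sensed by GST-GRP with red probe in fluorescence polarization (mP), controls without enzyme and at zero time.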 It is filed as biochemical. In general terms: In fluorescence polarisation assays a small probe gives low polarisation when free and higher when bound to something large.

Where two headings read alike, the source gives them in different places.

The term IC50 denotes the concentration needed to halve the response being measured.

Sequence of PI3K (P42336 whole entry): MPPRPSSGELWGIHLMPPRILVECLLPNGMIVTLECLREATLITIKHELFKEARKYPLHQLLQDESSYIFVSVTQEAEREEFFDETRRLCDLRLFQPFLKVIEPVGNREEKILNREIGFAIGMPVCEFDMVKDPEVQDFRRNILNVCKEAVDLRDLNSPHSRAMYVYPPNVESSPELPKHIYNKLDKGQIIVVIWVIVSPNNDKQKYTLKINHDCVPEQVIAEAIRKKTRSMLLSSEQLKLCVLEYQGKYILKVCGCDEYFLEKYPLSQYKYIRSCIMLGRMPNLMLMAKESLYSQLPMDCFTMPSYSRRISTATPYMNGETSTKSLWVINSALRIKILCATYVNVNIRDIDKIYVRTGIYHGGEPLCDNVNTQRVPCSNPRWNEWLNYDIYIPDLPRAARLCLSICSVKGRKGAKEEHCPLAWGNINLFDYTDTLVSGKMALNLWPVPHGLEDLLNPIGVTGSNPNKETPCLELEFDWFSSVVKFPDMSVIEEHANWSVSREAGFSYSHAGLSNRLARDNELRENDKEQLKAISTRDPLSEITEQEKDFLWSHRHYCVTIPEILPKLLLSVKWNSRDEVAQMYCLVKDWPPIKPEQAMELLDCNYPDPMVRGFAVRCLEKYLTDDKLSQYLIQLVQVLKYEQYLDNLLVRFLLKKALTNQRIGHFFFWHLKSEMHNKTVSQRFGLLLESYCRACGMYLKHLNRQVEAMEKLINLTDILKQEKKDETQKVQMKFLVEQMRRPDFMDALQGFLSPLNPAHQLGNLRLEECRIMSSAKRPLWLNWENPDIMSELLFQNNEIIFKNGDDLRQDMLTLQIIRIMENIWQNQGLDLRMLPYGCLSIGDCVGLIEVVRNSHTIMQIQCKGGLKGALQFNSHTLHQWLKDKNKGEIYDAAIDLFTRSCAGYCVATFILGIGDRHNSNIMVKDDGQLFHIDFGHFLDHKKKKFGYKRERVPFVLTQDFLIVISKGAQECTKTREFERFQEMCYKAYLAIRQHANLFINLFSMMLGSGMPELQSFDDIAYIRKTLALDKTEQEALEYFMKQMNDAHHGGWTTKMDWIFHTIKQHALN
Sequence of PI3K (P27986 whole entry partner): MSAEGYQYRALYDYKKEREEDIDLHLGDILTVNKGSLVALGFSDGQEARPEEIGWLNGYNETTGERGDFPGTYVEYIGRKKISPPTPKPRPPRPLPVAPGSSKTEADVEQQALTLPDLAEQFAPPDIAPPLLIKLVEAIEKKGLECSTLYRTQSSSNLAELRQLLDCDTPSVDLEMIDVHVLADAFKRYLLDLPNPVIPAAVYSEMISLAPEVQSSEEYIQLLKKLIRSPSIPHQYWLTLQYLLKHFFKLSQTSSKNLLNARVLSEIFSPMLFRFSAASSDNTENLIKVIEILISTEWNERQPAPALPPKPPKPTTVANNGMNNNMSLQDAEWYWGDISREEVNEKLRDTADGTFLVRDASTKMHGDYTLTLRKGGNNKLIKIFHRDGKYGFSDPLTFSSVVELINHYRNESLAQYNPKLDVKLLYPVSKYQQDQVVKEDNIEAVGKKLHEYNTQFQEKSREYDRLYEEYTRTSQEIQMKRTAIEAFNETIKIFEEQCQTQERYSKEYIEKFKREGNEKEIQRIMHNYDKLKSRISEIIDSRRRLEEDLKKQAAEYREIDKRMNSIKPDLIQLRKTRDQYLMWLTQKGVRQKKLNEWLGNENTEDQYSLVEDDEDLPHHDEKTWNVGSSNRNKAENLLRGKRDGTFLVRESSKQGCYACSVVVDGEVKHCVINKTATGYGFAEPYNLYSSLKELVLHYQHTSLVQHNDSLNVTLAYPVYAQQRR

For `CNC(=O)Nc1ccc(-c2nc(N3CCOCC3)c3cnn(C4CCN(C(=O)NC)CC4)c3n2)cc1` [Compound 722, N-methyl-4-(6-{4-[(methylcarbamoyl)amino]phenyl}-4-morpholin-4-yl-1H-pyrazolo[3,4-d]pyrimidin-1-yl)piperidine-1-carboxamide], the IC50 with breast line MDA468 came to 1800 nM; in the test on prostate line LNCap, 2200 nM; at PI3K (PI3Kα, read-out: PI3Kα IC50) it was 148 nM.
As to `CNC(=O)Nc1ccc(-c2nc(N3CCOCC3)c3cnn(C4CCN(C(=O)c5cccnc5)CC4)c3n2)cn1` [Compound 725, 1-methyl-3-(5-{4-morpholin-4-yl-1-[1-(pyridin-3-ylcarbonyl)piperidin-4-yl]-1H-pyrazolo[3,4-d]pyrimidin-6-yl}pyridin-2-yl)urea], the IC50 is 1150 nM with breast line MDA468; 800 nM with prostate line LNCap; 42 nM on PI3K (PI3Kα, read-out: PI3Kα IC50).
Regarding `C[C@H]1COCCN1c1nc(-c2cccc(O)c2)nc2c1cnn2-c1ccccc1` [Compound 726, 3-{4-[(3S)-3-methylmorpholin-4-yl]-1-phenyl-1H-pyrazolo[3,4-d]pyrimidin-6-yl}phenol], the IC50 in the test with breast line MDA468 (Homo sapiens, 72 h) was determined as 8000 nM; with prostate line LNCap (Homo sapiens, LNCaP, 72 h), 2700 nM; at PI3K (PI3Kα, read-out: PI3Kα IC50), 98 nM.
As to `O=C1COCCN1c1nc(-c2cccc(O)c2)nc2c1cnn2-c1ccccc1` [Compound 727, 4-[6-(3-hydroxyphenyl)-1-phenyl-1H-pyrazolo[3,4-d]pyrimidin-4-yl]morpholin-3-one], the IC50 with breast line MDA468 (Homo sapiens, 72 h) is more than 60000 nM; in the test on prostate line LNCap (Homo sapiens, LNCaP, 72 h) it was 55000 nM; on PI3K (PI3Kα, read-out: PI3Kα IC50), 11000 nM.
For the molecule `Oc1cccc(-c2nc(N3CCOCC3)c3cnn(CC(F)(F)F)c3n2)c1` [Compound 728, 3-[4-morpholin-4-yl-1-(2,2,2-trifluoroethyl)-1H-pyrazolo[3,4-d]pyrimidin-6-yl]phenol], the IC50 with breast line MDA468 (Homo sapiens, 72 h) worked out at 745 nM; in the test on prostate line LNCap (Homo sapiens, LNCaP, 72 h) it was 240 nM; on PI3K (PI3Kα, read-out: PI3Kα IC50) it was 40 nM.
As for `CNC(=O)Nc1ccc(-c2nc(N3CCOCC3)c3cnn(CC(F)(F)F)c3n2)cc1` [Compound 729, 1-methyl-3-{4-[4-morpholin-4-yl-1-(2,2,2-trifluoroethyl)-1H-pyrazolo[3,4-d]pyrimidin-6-yl]phenyl}urea], the IC50 in the test with breast line MDA468 (Homo sapiens, 72 h) was 600 nM; in the test on prostate line LNCap (Homo sapiens, LNCaP, 72 h), 225 nM; at PI3K (PI3Kα, read-out: PI3Kα IC50), 194 nM.
The matching figures for `CNC(=O)Nc1ccc(-c2nc(N3CCOCC3)c3cnn(C4CCN(Cc5cccnc5)CC4)c3n2)cc1Cl` [Compound 730, 1-(2-chloro-4-{4-morpholin-4-yl-1-[1-(pyridin-3-ylmethyl)piperidin-4-yl]-1H-pyrazolo[3,4-d]pyrimidin-6-yl}phenyl)-3-methylurea]: 1800 nM, 420 nM and 364 nM.
Take `CCNC(=O)Nc1ccc(-c2nc(N3CCOCC3)c3cnn(C4CCN(C(=O)OC)CC4)c3n2)cc1` [Compound 731, methyl 4-(6-{4-[(ethylcarbamoyl)amino]phenyl}-4-morpholin-4-yl-1H-pyrazolo[3,4-d]pyrimidin-1-yl)piperidine-1-carboxylate]: the IC50 was 70 nM in the test with breast line MDA468 (Homo sapiens, 72 h); less than 27 nM with prostate line LNCap (Homo sapiens, LNCaP, 72 h); 490 nM on PI3K (PI3Kα, read-out: PI3Kα IC50).
With `COC(=O)N1CCC(n2ncc3c(N4CCOCC4)nc(-c4ccc(NC(=O)NCCO)cc4)nc32)CC1` [Compound 733, methyl 4-[6-(4-{[(2-hydroxyethyl)carbamoyl]amino}phenyl)-4-morpholin-4-yl-1H-pyrazolo[3,4-d]pyrimidin-1-yl]piperidine-1-carboxylate], the IC50 came to 580 nM in the test on breast line MDA468 (Homo sapiens, 72 h); 800 nM in the test on prostate line LNCap (Homo sapiens, LNCaP, 72 h); 402 nM on PI3K (PI3Kα, read-out: PI3Kα IC50).
Take `COC(=O)N1CCC(n2ncc3c(N4CCOCC4)nc(-c4ccc(NC(=O)Nc5ccccn5)cc4)nc32)CC1` [Compound 736, methyl 4-(4-morpholin-4-yl-6-{4-[(pyridin-2-ylcarbamoyl)amino]phenyl}-1H-pyrazolo[3,4-d]pyrimidin-1-yl)piperidine-1-carboxylate]: the IC50 in the test with breast line MDA468 (Homo sapiens, 72 h) turned out to be 17000 nM; with prostate line LNCap (Homo sapiens, LNCaP, 72 h) it was 565 nM; on PI3K (PI3Kα, read-out: PI3Kα IC50) it was 1150 nM.
As for `COC(=O)N1CCC(n2ncc3c(N4CCOCC4)nc(-c4ccc(NC(=O)Nc5cccnc5)cc4)nc32)CC1` [Compound 737, methyl 4-(4-morpholin-4-yl-6-{4-[(pyridin-3-ylcarbamoyl)amino]phenyl}-1H-pyrazolo[3,4-d]pyrimidin-1-yl)piperidine-1-carboxylate], the IC50 was less than 27 nM in the test with breast line MDA468 (Homo sapiens, 72 h); less than 27 nM in the test with prostate line LNCap (Homo sapiens, LNCaP, 72 h); 34 nM at PI3K (PI3Kα, read-out: PI3Kα IC50).
On to `CNC(=S)Nc1ccc(-c2nc(N3CCOCC3)c3cnn(C4CCN(C(=O)OC)CC4)c3n2)cc1` [Compound 742, methyl 4-[6-(4-{[(methylamino)carbonothioyl]amino}phenyl)-4-morpholin-4-yl-1H-pyrazolo[3,4-d]pyrimidin-1-yl]piperidine-1-carboxylate], for which the IC50 in the test on breast line MDA468 (Homo sapiens, 72 h) worked out at 220 nM; in the test on prostate line LNCap (Homo sapiens, LNCaP, 72 h), 50 nM; on PI3K (PI3Kα, read-out: PI3Kα IC50), 153 nM.
For the molecule `CNC(=O)Nc1ccc(-c2nc(N3CCOCC3)c3cnn(C4CCN(CCCCO)CC4)c3n2)cc1` [Compound 743, 1-(4-{1-[1-(4-hydroxybutyl)piperidin-4-yl]-4-morpholin-4-yl-1H-pyrazolo[3,4-d]pyrimidin-6-yl}phenyl)-3-methylurea], the IC50 was determined as 2200 nM with breast line MDA468 (Homo sapiens, 72 h); 1800 nM in the test with prostate line LNCap (Homo sapiens, LNCaP, 72 h); 212 nM on PI3K (PI3Kα, read-out: PI3Kα IC50).
Turning to `COC(=O)Nc1ccc(-c2nc(N3CCOCC3)c3cnn(C4CCN(CCCCO)CC4)c3n2)cc1` [Compound 744, methyl (4-{1-[1-(4-hydroxybutyl)piperidin-4-yl]-4-morpholin-4-yl-1H-pyrazolo[3,4-d]pyrimidin-6-yl}phenyl)carbamate], the IC50 in the test on breast line MDA468 (Homo sapiens, 72 h) came out at 10200 nM; in the test on prostate line LNCap (Homo sapiens, LNCaP, 72 h), 3500 nM; on PI3K (PI3Kα, read-out: PI3Kα IC50), 1050 nM.
The matching figures for `CCNC(=O)Nc1ccc(-c2nc(N3CCOCC3)c3cnn(C4CCN(CCCCO)CC4)c3n2)cc1` [Compound 745, 1-ethyl-3-(4-{1-[1-(4-hydroxybutyl)piperidin-4-yl]-4-morpholin-4-yl-1H-pyrazolo[3,4-d]pyrimidin-6-yl}phenyl)urea]: 2900 nM, 1300 nM and 550 nM.
On to `O=C(NCCO)Nc1ccc(-c2nc(N3CCOCC3)c3cnn(C4CCN(CCCCO)CC4)c3n2)cc1` [Compound 746, 1-(4-{1-[1-(4-hydroxybutyl)piperidin-4-yl]-4-morpholin-4-yl-1H-pyrazolo[3,4-d]pyrimidin-6-yl}phenyl)-3-(2-hydroxyethyl)urea], for which the IC50 was 30000 nM in the test on breast line MDA468 (Homo sapiens, 72 h); 29000 nM in the test with prostate line LNCap (Homo sapiens, LNCaP, 72 h); 370 nM on PI3K (PI3Kα, read-out: PI3Kα IC50).
In the case of `O=C(NCCF)Nc1ccc(-c2nc(N3CCOCC3)c3cnn(C4CCN(CCCCO)CC4)c3n2)cc1` [Compound 747, 1-(2-fluoroethyl)-3-(4-{1-[1-(4-hydroxybutyl)piperidin-4-yl]-4-morpholin-4-yl-1H-pyrazolo[3,4-d]pyrimidin-6-yl}phenyl)urea], the IC50 was found to be 6660 nM in the test on breast line MDA468 (Homo sapiens, 72 h); 3300 nM in the test on prostate line LNCap (Homo sapiens, LNCaP, 72 h); 782 nM at PI3K (PI3Kα, read-out: PI3Kα IC50).
On to `O=C(Nc1ccccc1)Nc1ccc(-c2nc(N3CCOCC3)c3cnn(C4CCN(CCCCO)CC4)c3n2)cc1` [Compound 748, 1-(4-{1-[1-(4-hydroxybutyl)piperidin-4-yl]-4-morpholin-4-yl-1H-pyrazolo[3,4-d]pyrimidin-6-yl}phenyl)-3-phenylurea], for which the IC50 in the test with breast line MDA468 (Homo sapiens, 72 h) came to 390 nM; in the test with prostate line LNCap (Homo sapiens, LNCaP, 72 h), 80 nM; at PI3K (PI3Kα, read-out: PI3Kα IC50) it was 53 nM.
`Nc1ccc(-c2nc(N3CCOCC3)c3cnn(C4CCN(CCCCO)CC4)c3n2)cc1` [Compound 749, 4-{4-[6-(4-aminophenyl)-4-morpholin-4-yl-1H-pyrazolo[3,4-d]pyrimidin-1-yl]piperidin-1-yl}butan-1-ol]: the IC50 in the test on breast line MDA468 (Homo sapiens, 72 h) worked out at 30000 nM; in the test on prostate line LNCap (Homo sapiens, LNCaP, 72 h) it was 12000 nM; on PI3K (PI3Kα, read-out: PI3Kα IC50), 4230 nM.
The matching figures for `CCOC(=O)N1CCC(n2ncc3c(N4CCOCC4)nc(-c4ccc(NC(=O)NC)cc4)nc32)CC1` [Compound 750, ethyl 4-(6-{4-[(methylcarbamoyl)amino]phenyl}-4-morpholin-4-yl-1H-pyrazolo[3,4-d]pyrimidin-1-yl)piperidine-1-carboxylate]: 80 nM, 33 nM and 221 nM.
Consider `CCCOC(=O)N1CCC(n2ncc3c(N4CCOCC4)nc(-c4ccc(NC(=O)NC)cc4)nc32)CC1` [Compound 751, propyl 4-(6-{4-[(methylcarbamoyl)amino]phenyl}-4-morpholin-4-yl-1H-pyrazolo[3,4-d]pyrimidin-1-yl)piperidine-1-carboxylate], for which the IC50 in the test with breast line MDA468 (Homo sapiens, 72 h) is 110 nM; with prostate line LNCap (Homo sapiens, LNCaP, 72 h), 34 nM; on PI3K (PI3Kα, read-out: PI3Kα IC50) it was 106 nM.
Regarding `C=COC(=O)N1CCC(n2ncc3c(N4CCOCC4)nc(-c4ccc(NC(=O)NC)cc4)nc32)CC1` [Compound 753, vinyl 4-(6-{4-[(methylcarbamoyl)amino]phenyl}-4-morpholin-4-yl-1H-pyrazolo[3,4-d]pyrimidin-1-yl)piperidine-1-carboxylate], the IC50 in the test with breast line MDA468 (Homo sapiens, 72 h) is 110 nM; with prostate line LNCap (Homo sapiens, LNCaP, 72 h), 47 nM; at PI3K (PI3Kα, read-out: PI3Kα IC50), 100 nM.
On to `CNC(=O)Nc1ccc(-c2nc(N3CCOCC3)c3cnn(C4CCN(C(=O)OCC(C)C)CC4)c3n2)cc1` [Compound 754, isobutyl 4-(6-{4-[(methylcarbamoyl)amino]phenyl}-4-morpholin-4-yl-1H-pyrazolo[3,4-d]pyrimidin-1-yl)piperidine-1-carboxylate], for which the IC50 came out at 270 nM in the test with breast line MDA468 (Homo sapiens, 72 h); 130 nM with prostate line LNCap (Homo sapiens, LNCaP, 72 h); 72 nM on PI3K (PI3Kα, read-out: PI3Kα IC50).
`CNC(=O)Nc1ccc(-c2nc(N3CCOCC3)c3cnn(C4CCN(C(=O)Oc5ccccc5)CC4)c3n2)cc1` [Compound 755, phenyl 4-(6-{4-[(methylcarbamoyl)amino]phenyl}-4-morpholin-4-yl-1H-pyrazolo[3,4-d]pyrimidin-1-yl)piperidine-1-carboxylate]: the IC50 with breast line MDA468 (Homo sapiens, 72 h) is 160 nM; in the test with prostate line LNCap (Homo sapiens, 72 h), 60 nM; on PI3K (PI3Kα IC50, PI3Kα), 16 nM.
